# Measured values from patent publication US6355799B1, “Substituted benzene compounds, process for their preparation, and herbicidal and defoliant compositions containing them” (ISK Americas Incorporated, priority 1997, dated 2002).
# Tests used:
# Assay type in all cases: in vivo
# [1] = system: redroot pigweed (Amaranthus retroflexus, AMARE); assay: Pre-emerge test, greenhouse herbicide activity screening; details: rating scale 0-100, 14 days after application
# Outline: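 Compounds in acetone were track-sprayed at 15-1000 g ai/ha (187 l/ha) on sandy loam pots: pre-emerge one day after seeding, post-emerge at 2-3 leaf stage with 0.25% v/v non-ionic surfactant. Phytotoxicity was rated 14 days later on a 0 (no damage) to 100 (complete death) scale.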
# [2] = system: ivyleaf morningglory (Ipomoea hederacea, IPOHE); assay: Post-emerge test, greenhouse herbicide activity screening; details: rating scale 0-100 (0 no damage, 100 complete death), 14 days after application
# Outline: (§1)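 Herbicidal damage is scored 0 (none) to 100 (complete plant death) two weeks after a simulated field spray. Rates span 15–1000 g ai/ha, delivered in acetone at 187 l/ha. For post-emergence treatments, plants have 2–3 leaves and the spray carries 0.25% v/v non-ionic surfactant.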
# [3] = system: large crabgrass (Digitaria sanguinalis, DIGSA); assay: as above; details: rating scale 0-100 (0 no damage, 100 complete death), 14 days after application
# Outline: as §1
# [4] = system: velvetleaf (Abutilon theophrasti, ABUTH); assay: as above; details: rating scale 0-100 (0 no damage, 100 complete death), 14 days after application
# Outline: as §1
# [5] = system: green foxtail (Setaria viridis, SETVI); assay: as above; details: rating scale 0-100 (0 no damage, 100 complete death), 14 days after application
# Outline: as §1
# [6] = system: johnsongrass (Sorghum halepense, SORHA); assay: as above; details: rating scale 0-100 (0 no damage, 100 complete death), 14 days after application
# Outline: as §1
# [7] = system: lambsquarters (Chenopodium album, CHEAL); assay: as above; details: rating scale 0-100 (0 no damage, 100 complete death), 14 days after application
# Outline: as §1
# [8] = system: redroot pigweed (Amaranthus retroflexus, AMARE); assay: as above; details: rating scale 0-100 (0 no damage, 100 complete death), 14 days after application
# Outline: as §1
# [9] = system: sicklepod (Cassia obtusifolia, CASOB); assay: as above; details: rating scale 0-100 (0 no damage, 100 complete death), 14 days after application
# Outline: as §1
# [10] = system: barnyardgrass (Echinochloa crus-galli, ECHCG); assay: as above; details: rating scale 0-100 (0 no damage, 100 complete death), 14 days after application
# Outline: as §1
# [11] = system: field corn (Zea mays L., var. Dekalb 535, CORN); assay: Post-emerge test, crop safety; details: rating scale 0-100 (0 no damage, 100 complete death), 14 days after application
# Outline: (§2)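 Sandy loam pots; pre-emerge: sown 1 d pre-spray, surface-watered after, then bottom-watered. Post-emerge: sown 8–21 d before, 2–3 leaf stage, + 0.25% v/v NIS, bottom-watered. Acetone, 187 l/ha track spray, 15–1000 g ai/ha. 0–100 injury score, day 14.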
# [12] = system: upland rice (Oryza sp., var. Tebonnet, RICE); assay: Post-emerge test, crop safety; details: rating scale 0-100 (0 no damage, 100 complete death), 14 days after application
# Outline: as §2
# [13] = system: field corn (Zea mays L., var. Dekalb 535, CORN); assay: Pre-emerge test, crop safety; details: rating scale 0-100, 14 days after application
# Outline: (§3)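 Applied at 15–1000 g ai/ha from acetone in 187 l/ha spray volume. Post-emergence applications included 0.25% v/v non-ionic surfactant and reached plants sown 8–21 days before. Pre-emergence applications were incorporated by surface watering. Efficacy or crop damage was rated on a 0–100 scale after 14 days.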
# [14] = system: upland rice (Oryza sp., var. Tebonnet, RICE); assay: Pre-emerge test, crop safety; details: rating scale 0-100, 14 days after application
# Outline: as §3
# [15] = system: ivyleaf morningglory (Ipomoea hederacea, IPOHE); assay: Pre-emerge test, greenhouse herbicide activity screening; details: rating scale 0-100, 14 days after application
# Outline: as §2
# [16] = system: large crabgrass (Digitaria sanguinalis, DIGSA); assay: as above; details: rating scale 0-100, 14 days after application
# Outline: as §2
# [17] = system: velvetleaf (Abutilon theophrasti, ABUTH); assay: as above; details: rating scale 0-100, 14 days after application
# Outline: as §2
# [18] = system: green foxtail (Setaria viridis, SETVI); assay: as above; details: rating scale 0-100, 14 days after application
# Outline: as §2
# [19] = system: johnsongrass (Sorghum halepense, SORHA); assay: as above; details: rating scale 0-100, 14 days after application
# Outline: as §2
# [20] = system: lambsquarters (Chenopodium album, CHEAL); assay: as above; details: rating scale 0-100, 14 days after application
# Outline: as §2
# [21] = system: common ragweed (Ambrosia artemisizfolia L., AMBEL); assay: as above; details: rating scale 0-100, 14 days after application
# Outline: as §2
# [22] = system: sicklepod (Cassia obtusifolia, CASOB); assay: as above; details: rating scale 0-100, 14 days after application
# Outline: as §2
# [23] = system: barnyardgrass (Echinochloa crus-galli, ECHCG); assay: as above; details: rating scale 0-100, 14 days after application
# Outline: as §2
structure (smiles),measurement,setting,value
C=CCOC(=O)C(C)(Cl)Cc1c(OC)c(Cl)cc(F)c1-n1c(=O)cc(C(F)(F)F)n(C)c1=O (centres unmarked) [14-43],"Pre-emerge herbicidal activity, phytotoxicity rating AMARE",[1]; 63 g ai/ha,100
same,"Pre-emerge herbicidal activity, phytotoxicity rating AMARE",[1]; 250 g ai/ha,100
same,"Post-emerge Herbicidal Activity, phytotoxicity rating IPOHE",[2]; Rate 63 g ai/ha,95
same,"Post-emerge Herbicidal Activity, phytotoxicity rating IPOHE",[2]; Rate 250 g ai/ha,100
same,"Post-emerge Herbicidal Activity, phytotoxicity rating DIGSA",[3]; Rate 63 g ai/ha,80
same,"Post-emerge Herbicidal Activity, phytotoxicity rating DIGSA",[3]; Rate 250 g ai/ha,100
same,"Post-emerge Herbicidal Activity, phytotoxicity rating ABUTH",[4]; Rate 63 g ai/ha,100
same,"Post-emerge Herbicidal Activity, phytotoxicity rating ABUTH",[4]; Rate 250 g ai/ha,100
same,"Post-emerge Herbicidal Activity, phytotoxicity rating SETVI",[5]; Rate 63 g ai/ha,90
same,"Post-emerge Herbicidal Activity, phytotoxicity rating SETVI",[5]; Rate 250 g ai/ha,100
same,"Post-emerge Herbicidal Activity, phytotoxicity rating SORHA",[6]; Rate 63 g ai/ha,80
same,"Post-emerge Herbicidal Activity, phytotoxicity rating SORHA",[6]; Rate 250 g ai/ha,95
same,"Post-emerge Herbicidal Activity, phytotoxicity rating CHEAL",[7]; Rate 63 g ai/ha,100
same,"Post-emerge Herbicidal Activity, phytotoxicity rating CHEAL",[7]; Rate 250 g ai/ha,100
same,"Post-emerge Herbicidal Activity, phytotoxicity rating AMARE",[8]; Rate 63 g ai/ha,100
same,"Post-emerge Herbicidal Activity, phytotoxicity rating AMARE",[8]; Rate 250 g ai/ha,100
same,"Post-emerge Herbicidal Activity, phytotoxicity rating CASOB",[9]; Rate 63 g ai/ha,40
same,"Post-emerge Herbicidal Activity, phytotoxicity rating CASOB",[9]; Rate 250 g ai/ha,90
same,"Post-emerge Herbicidal Activity, phytotoxicity rating ECHCG",[10]; Rate 63 g ai/ha,100
same,"Post-emerge Herbicidal Activity, phytotoxicity rating ECHCG",[10]; Rate 250 g ai/ha,100
same,Post-emerge phytotoxicity rating CORN (crop damage),[11]; Rate 63 g ai/ha,95
same,Post-emerge phytotoxicity rating CORN (crop damage),[11]; Rate 250 g ai/ha,100
same,Post-emerge phytotoxicity rating RICE (crop damage),[12]; Rate 63 g ai/ha,95
same,Post-emerge phytotoxicity rating RICE (crop damage),[12]; Rate 250 g ai/ha,100
same,"Pre-emerge phytotoxicity rating, crop damage CORN",[13]; 63 g ai/ha,0
same,"Pre-emerge phytotoxicity rating, crop damage CORN",[13]; 250 g ai/ha,20
same,"Pre-emerge phytotoxicity rating, crop damage RICE",[14]; 63 g ai/ha,10
same,"Pre-emerge phytotoxicity rating, crop damage RICE",[14]; 250 g ai/ha,40
same,"Pre-emerge herbicidal activity, phytotoxicity rating IPOHE",[15]; 63 g ai/ha,0
same,"Pre-emerge herbicidal activity, phytotoxicity rating IPOHE",[15]; 250 g ai/ha,0
same,"Pre-emerge herbicidal activity, phytotoxicity rating DIGSA",[16]; 63 g ai/ha,80
same,"Pre-emerge herbicidal activity, phytotoxicity rating DIGSA",[16]; 250 g ai/ha,100
same,"Pre-emerge herbicidal activity, phytotoxicity rating ABUTH",[17]; 63 g ai/ha,90
same,"Pre-emerge herbicidal activity, phytotoxicity rating ABUTH",[17]; 250 g ai/ha,100
same,"Pre-emerge herbicidal activity, phytotoxicity rating SETVI",[18]; 63 g ai/ha,30
same,"Pre-emerge herbicidal activity, phytotoxicity rating SETVI",[18]; 250 g ai/ha,95
same,"Pre-emerge herbicidal activity, phytotoxicity rating SORHA",[19]; 63 g ai/ha,20
same,"Pre-emerge herbicidal activity, phytotoxicity rating SORHA",[19]; 250 g ai/ha,30
same,"Pre-emerge herbicidal activity, phytotoxicity rating CHEAL",[20]; 63 g ai/ha,100
same,"Pre-emerge herbicidal activity, phytotoxicity rating CHEAL",[20]; 250 g ai/ha,100
same,"Pre-emerge herbicidal activity, phytotoxicity rating AMBEL",[21]; 63 g ai/ha,0
same,"Pre-emerge herbicidal activity, phytotoxicity rating AMBEL",[21]; 250 g ai/ha,100
same,"Pre-emerge herbicidal activity, phytotoxicity rating CASOB",[22]; 63 g ai/ha,0
same,"Pre-emerge herbicidal activity, phytotoxicity rating CASOB",[22]; 250 g ai/ha,0
same,"Pre-emerge herbicidal activity, phytotoxicity rating ECHCG",[23]; 63 g ai/ha,0
same,"Pre-emerge herbicidal activity, phytotoxicity rating ECHCG",[23]; 250 g ai/ha,80
COc1c(Cl)cc(F)c(-n2c(=O)cc(C(F)(F)F)n(C)c2=O)c1CC(C)(Cl)C(=O)OC(C(F)(F)F)C(F)(F)F (centres unmarked) [14-46],"Pre-emerge herbicidal activity, phytotoxicity rating AMARE",[1]; 63 g ai/ha,60
same,"Pre-emerge herbicidal activity, phytotoxicity rating AMARE",[1]; 250 g ai/ha,95
same,"Post-emerge Herbicidal Activity, phytotoxicity rating IPOHE",[2]; Rate 63 g ai/ha,100
same,"Post-emerge Herbicidal Activity, phytotoxicity rating IPOHE",[2]; Rate 250 g ai/ha,100
same,"Post-emerge Herbicidal Activity, phytotoxicity rating DIGSA",[3]; Rate 63 g ai/ha,80
same,"Post-emerge Herbicidal Activity, phytotoxicity rating DIGSA",[3]; Rate 250 g ai/ha,100
same,"Post-emerge Herbicidal Activity, phytotoxicity rating ABUTH",[4]; Rate 63 g ai/ha,100
same,"Post-emerge Herbicidal Activity, phytotoxicity rating ABUTH",[4]; Rate 250 g ai/ha,100
same,"Post-emerge Herbicidal Activity, phytotoxicity rating SETVI",[5]; Rate 63 g ai/ha,90
same,"Post-emerge Herbicidal Activity, phytotoxicity rating SETVI",[5]; Rate 250 g ai/ha,100
same,"Post-emerge Herbicidal Activity, phytotoxicity rating SORHA",[6]; Rate 63 g ai/ha,80
same,"Post-emerge Herbicidal Activity, phytotoxicity rating SORHA",[6]; Rate 250 g ai/ha,90
same,"Post-emerge Herbicidal Activity, phytotoxicity rating CHEAL",[7]; Rate 63 g ai/ha,100
same,"Post-emerge Herbicidal Activity, phytotoxicity rating CHEAL",[7]; Rate 250 g ai/ha,100
same,"Post-emerge Herbicidal Activity, phytotoxicity rating AMARE",[8]; Rate 63 g ai/ha,95
same,"Post-emerge Herbicidal Activity, phytotoxicity rating AMARE",[8]; Rate 250 g ai/ha,100
same,"Post-emerge Herbicidal Activity, phytotoxicity rating CASOB",[9]; Rate 63 g ai/ha,60
same,"Post-emerge Herbicidal Activity, phytotoxicity rating CASOB",[9]; Rate 250 g ai/ha,90
same,"Post-emerge Herbicidal Activity, phytotoxicity rating ECHCG",[10]; Rate 63 g ai/ha,100
same,"Post-emerge Herbicidal Activity, phytotoxicity rating ECHCG",[10]; Rate 250 g ai/ha,100
same,Post-emerge phytotoxicity rating CORN (crop damage),[11]; Rate 63 g ai/ha,95
same,Post-emerge phytotoxicity rating CORN (crop damage),[11]; Rate 250 g ai/ha,100
same,Post-emerge phytotoxicity rating RICE (crop damage),[12]; Rate 63 g ai/ha,60
same,Post-emerge phytotoxicity rating RICE (crop damage),[12]; Rate 250 g ai/ha,100
same,"Pre-emerge phytotoxicity rating, crop damage CORN",[13]; 63 g ai/ha,0
same,"Pre-emerge phytotoxicity rating, crop damage CORN",[13]; 250 g ai/ha,0
same,"Pre-emerge phytotoxicity rating, crop damage RICE",[14]; 63 g ai/ha,0
same,"Pre-emerge phytotoxicity rating, crop damage RICE",[14]; 250 g ai/ha,30
same,"Pre-emerge herbicidal activity, phytotoxicity rating IPOHE",[15]; 63 g ai/ha,0
same,"Pre-emerge herbicidal activity, phytotoxicity rating IPOHE",[15]; 250 g ai/ha,0
same,"Pre-emerge herbicidal activity, phytotoxicity rating DIGSA",[16]; 63 g ai/ha,0
same,"Pre-emerge herbicidal activity, phytotoxicity rating DIGSA",[16]; 250 g ai/ha,0
same,"Pre-emerge herbicidal activity, phytotoxicity rating ABUTH",[17]; 63 g ai/ha,80
same,"Pre-emerge herbicidal activity, phytotoxicity rating ABUTH",[17]; 250 g ai/ha,100
same,"Pre-emerge herbicidal activity, phytotoxicity rating SETVI",[18]; 63 g ai/ha,0
same,"Pre-emerge herbicidal activity, phytotoxicity rating SETVI",[18]; 250 g ai/ha,0
same,"Pre-emerge herbicidal activity, phytotoxicity rating SORHA",[19]; 63 g ai/ha,0
same,"Pre-emerge herbicidal activity, phytotoxicity rating SORHA",[19]; 250 g ai/ha,0
same,"Pre-emerge herbicidal activity, phytotoxicity rating CHEAL",[20]; 63 g ai/ha,0
same,"Pre-emerge herbicidal activity, phytotoxicity rating CHEAL",[20]; 250 g ai/ha,90
same,"Pre-emerge herbicidal activity, phytotoxicity rating AMBEL",[21]; 63 g ai/ha,50
same,"Pre-emerge herbicidal activity, phytotoxicity rating AMBEL",[21]; 250 g ai/ha,100
same,"Pre-emerge herbicidal activity, phytotoxicity rating CASOB",[22]; 63 g ai/ha,0
same,"Pre-emerge herbicidal activity, phytotoxicity rating CASOB",[22]; 250 g ai/ha,0
same,"Pre-emerge herbicidal activity, phytotoxicity rating ECHCG",[23]; 63 g ai/ha,0
same,"Pre-emerge herbicidal activity, phytotoxicity rating ECHCG",[23]; 250 g ai/ha,0
